Test results as given in patent US6437127B1, “Substituted cycloalkenes and their use as microbices, especially as fungicides” (Bayer Aktiengesellschaft, priority 1995, dated 2002).

Legend:
[1] = tested on: Erysiphe graminis. f. sp. tritici; assay: Erysiphe test (wheat)/curative; type: in vivo; conditions: curative, sprayed 48 hours after inoculation, application rate 250 g/ha, evaluation 7 days after inoculation
Protocol: Erysiphe Test (Wheat)/Curative Solvent: 10 parts by weight of N-methyl-pyrrolidone Emulsifier: 0.6 parts by weight of alkylaryl polyglycol ether To produce a suitable preparation of active compound, 1 part by weight of active compound is mixed with the stated amounts of solvent and emulsifier, and the concentrate is diluted with water to the desired concentration. To test for curative activity, young plants are dusted with spores of Erysiphe graminis. f. sp. tritici. 48 hours after the inoculation, the plants are sprayed with the preparation of active compound at the stated application rate. The plants are placed in a greenhouse at a temperature of about 20° C. and a relative atmospheric humidity of about 80%, in order to promote the development of mildew […]. Evaluation is carried out 7 days after the inoculation.

[2] = tested on: Pseudocercosporella herpotrichoides; assay: Pseudocercosporella herpotrichoides test (wheat)/protective; type: in vivo; conditions: protective, application rate 250 g/ha, evaluation 21 days after inoculation
Protocol: Pseudocercosporella Herpotrichoides Test (Wheat)/Protective Solvent: 10 parts by weight of N-methyl-pyrrolidone Emulsifier: 0.6 parts by weight of alkylaryl polyglycol ether To produce a suitable preparation of active compound, 1 part by weight of active compound is mixed with the stated amounts of solvent and emulsifier, and the concentrate is diluted with water to the desired concentration. To test for protective activity, young plants are sprayed with the preparation of active compound at the stated application rate. After the spray coating has dried on, the stem bases of the plants are inoculated with spores of Pseudocercosporella herpotrichoides. The plants are placed in a greenhouse at a temperature of about 10° C. and a relative atmospheric humidity of about 80%. Evaluation is carried out 21 days after the inoculation.

CNC(=O)C(=NOC)C1=C(/C=C/c2ccccc2)CCC1 [compound (1)]
efficacy [1]: 75% | efficacy [2]: 90% | melting point: 135 to 140 °C
